According to ChEMBL document CHEMBL1141384, “Discovery of a potent, selective, and orally active human epidermal growth factor receptor-2 sheddase inhibitor for the treatment of cancer” (J Med Chem, 2007):
Calls of active or inactive are those of the source. The calls are words filed in the database; no cut-off is given here.

Tests used:
[1] = AUC (0-24h) in murine at 10 mg/kg, po; format: ADME, organism-based; set-up: time < 24 hr, dose 10 mg/kg, route oral; details: mouse, in vivo
[2] = Cmax in murine at 10 mg/kg, po; format: ADME, organism-based; set-up: dose 10 mg/kg, route oral; details: mouse, in vivo
[3] = biological target: Stromelysin-1 (Homo sapiens, UniProt P08254); assay: Inhibition of MMP3
[4] = Protein binding in murine plasma; format: ADME, organism-based; details: mouse, read-out: PPB (converted)
[5] = biological target: 72 kDa type IV collagenase (Homo sapiens, UniProt P08253); assay: Inhibition of MMP2
[6] = biological target: Matrix metalloproteinase-9 (Homo sapiens, UniProt P14780); assay: Inhibition of MMP9
[7] = Clearance in murine; format: ADME, organism-based; details: mouse, in vivo
[8] = biological target: T1, Interstitial collagenase (Homo sapiens, UniProt P03956); assay: Inhibition of MMP1
T1 sequence (P03956 whole entry): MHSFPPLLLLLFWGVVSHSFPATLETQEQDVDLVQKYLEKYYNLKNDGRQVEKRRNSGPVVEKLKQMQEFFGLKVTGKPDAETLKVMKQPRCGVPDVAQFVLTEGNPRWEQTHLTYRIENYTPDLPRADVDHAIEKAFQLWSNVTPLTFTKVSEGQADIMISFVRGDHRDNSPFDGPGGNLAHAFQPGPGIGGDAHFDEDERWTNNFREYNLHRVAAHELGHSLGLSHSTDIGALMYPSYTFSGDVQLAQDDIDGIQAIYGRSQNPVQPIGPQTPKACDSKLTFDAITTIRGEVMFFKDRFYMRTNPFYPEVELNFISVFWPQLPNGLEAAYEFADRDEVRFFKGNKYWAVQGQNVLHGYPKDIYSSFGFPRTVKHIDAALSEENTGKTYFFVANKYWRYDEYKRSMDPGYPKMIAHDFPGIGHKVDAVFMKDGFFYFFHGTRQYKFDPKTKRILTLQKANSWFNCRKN

[9] = biological target: T2, Disintegrin and metalloproteinase domain-containing protein 10 (Homo sapiens, UniProt O14672); assay: Inhibition of ADAM10
T2 sequence (O14672 whole entry): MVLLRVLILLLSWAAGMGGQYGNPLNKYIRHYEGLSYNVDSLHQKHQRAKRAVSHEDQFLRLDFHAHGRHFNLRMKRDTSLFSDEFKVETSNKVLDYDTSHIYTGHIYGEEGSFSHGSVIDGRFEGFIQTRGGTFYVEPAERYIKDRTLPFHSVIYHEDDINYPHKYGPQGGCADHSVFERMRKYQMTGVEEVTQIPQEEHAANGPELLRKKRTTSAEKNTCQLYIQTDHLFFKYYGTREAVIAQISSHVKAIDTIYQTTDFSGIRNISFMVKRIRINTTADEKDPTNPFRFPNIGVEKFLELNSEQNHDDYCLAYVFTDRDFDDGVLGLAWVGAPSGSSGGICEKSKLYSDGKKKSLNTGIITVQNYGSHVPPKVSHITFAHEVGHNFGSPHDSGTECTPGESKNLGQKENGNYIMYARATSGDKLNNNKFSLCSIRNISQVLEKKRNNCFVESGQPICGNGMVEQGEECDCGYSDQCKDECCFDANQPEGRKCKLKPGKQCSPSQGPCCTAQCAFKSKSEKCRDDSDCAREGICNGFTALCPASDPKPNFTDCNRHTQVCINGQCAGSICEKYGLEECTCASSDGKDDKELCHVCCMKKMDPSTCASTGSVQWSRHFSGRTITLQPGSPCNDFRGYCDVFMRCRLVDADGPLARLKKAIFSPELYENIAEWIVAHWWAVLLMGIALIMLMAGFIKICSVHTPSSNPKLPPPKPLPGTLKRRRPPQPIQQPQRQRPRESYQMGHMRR

[10] = biological target: Receptor tyrosine-protein kinase erbB-2 (Homo sapiens) (UniProt P04626); assay: Inhibition of Her2 sheddase activity in BT474 cell line; format: functional, cell-based; details: BT-474
Sequence of Receptor tyrosine-protein kinase erbB-2 (Homo sapiens) (P04626 whole entry): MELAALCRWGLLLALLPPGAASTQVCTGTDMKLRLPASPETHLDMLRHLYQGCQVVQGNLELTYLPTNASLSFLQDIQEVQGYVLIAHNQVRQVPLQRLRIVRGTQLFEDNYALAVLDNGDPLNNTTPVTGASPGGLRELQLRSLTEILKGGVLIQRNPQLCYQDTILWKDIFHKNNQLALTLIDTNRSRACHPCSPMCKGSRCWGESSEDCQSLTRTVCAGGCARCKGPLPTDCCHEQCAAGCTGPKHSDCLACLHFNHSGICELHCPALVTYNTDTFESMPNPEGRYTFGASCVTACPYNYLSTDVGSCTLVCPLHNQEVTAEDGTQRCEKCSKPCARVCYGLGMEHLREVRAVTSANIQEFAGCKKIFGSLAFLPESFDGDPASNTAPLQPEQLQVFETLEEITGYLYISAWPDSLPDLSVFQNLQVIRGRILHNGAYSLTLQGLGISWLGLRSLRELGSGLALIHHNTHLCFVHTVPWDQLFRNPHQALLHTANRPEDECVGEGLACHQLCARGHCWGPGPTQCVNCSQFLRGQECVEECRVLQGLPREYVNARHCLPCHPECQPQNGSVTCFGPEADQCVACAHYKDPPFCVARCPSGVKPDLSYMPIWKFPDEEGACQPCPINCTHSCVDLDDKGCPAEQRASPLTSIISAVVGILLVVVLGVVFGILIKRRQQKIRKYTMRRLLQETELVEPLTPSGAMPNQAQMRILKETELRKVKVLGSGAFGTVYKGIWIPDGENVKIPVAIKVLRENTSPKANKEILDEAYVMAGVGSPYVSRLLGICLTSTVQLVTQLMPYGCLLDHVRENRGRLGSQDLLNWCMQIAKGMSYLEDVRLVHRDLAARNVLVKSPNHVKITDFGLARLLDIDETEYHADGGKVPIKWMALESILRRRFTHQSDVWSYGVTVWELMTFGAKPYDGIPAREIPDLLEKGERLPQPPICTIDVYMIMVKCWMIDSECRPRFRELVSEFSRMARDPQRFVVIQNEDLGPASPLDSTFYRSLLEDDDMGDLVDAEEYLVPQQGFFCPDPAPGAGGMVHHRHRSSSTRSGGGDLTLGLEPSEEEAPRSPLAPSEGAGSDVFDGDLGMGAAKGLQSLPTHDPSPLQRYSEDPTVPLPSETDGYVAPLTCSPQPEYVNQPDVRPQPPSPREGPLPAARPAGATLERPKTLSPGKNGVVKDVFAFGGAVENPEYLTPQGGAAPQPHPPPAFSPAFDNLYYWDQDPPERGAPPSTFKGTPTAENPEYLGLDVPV

Sequence of 72 kDa type IV collagenase (P08253 whole entry): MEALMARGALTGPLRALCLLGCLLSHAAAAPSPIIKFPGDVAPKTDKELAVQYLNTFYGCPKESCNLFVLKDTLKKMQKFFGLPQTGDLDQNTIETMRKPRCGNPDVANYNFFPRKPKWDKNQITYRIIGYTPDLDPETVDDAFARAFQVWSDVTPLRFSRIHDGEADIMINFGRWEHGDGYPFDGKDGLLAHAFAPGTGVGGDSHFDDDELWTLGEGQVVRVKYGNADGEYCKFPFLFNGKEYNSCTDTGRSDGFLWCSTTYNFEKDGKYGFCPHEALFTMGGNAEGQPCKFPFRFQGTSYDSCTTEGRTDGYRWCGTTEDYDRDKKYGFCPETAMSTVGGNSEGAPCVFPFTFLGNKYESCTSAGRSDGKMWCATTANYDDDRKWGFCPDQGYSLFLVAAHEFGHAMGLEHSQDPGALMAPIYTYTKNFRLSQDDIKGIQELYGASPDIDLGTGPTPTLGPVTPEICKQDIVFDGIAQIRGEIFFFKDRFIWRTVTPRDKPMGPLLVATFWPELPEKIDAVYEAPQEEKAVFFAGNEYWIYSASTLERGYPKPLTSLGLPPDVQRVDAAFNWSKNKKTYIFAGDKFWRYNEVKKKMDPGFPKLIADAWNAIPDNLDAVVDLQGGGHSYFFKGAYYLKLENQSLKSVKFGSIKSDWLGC
Sequence of Matrix metalloproteinase-9 (P14780 whole entry): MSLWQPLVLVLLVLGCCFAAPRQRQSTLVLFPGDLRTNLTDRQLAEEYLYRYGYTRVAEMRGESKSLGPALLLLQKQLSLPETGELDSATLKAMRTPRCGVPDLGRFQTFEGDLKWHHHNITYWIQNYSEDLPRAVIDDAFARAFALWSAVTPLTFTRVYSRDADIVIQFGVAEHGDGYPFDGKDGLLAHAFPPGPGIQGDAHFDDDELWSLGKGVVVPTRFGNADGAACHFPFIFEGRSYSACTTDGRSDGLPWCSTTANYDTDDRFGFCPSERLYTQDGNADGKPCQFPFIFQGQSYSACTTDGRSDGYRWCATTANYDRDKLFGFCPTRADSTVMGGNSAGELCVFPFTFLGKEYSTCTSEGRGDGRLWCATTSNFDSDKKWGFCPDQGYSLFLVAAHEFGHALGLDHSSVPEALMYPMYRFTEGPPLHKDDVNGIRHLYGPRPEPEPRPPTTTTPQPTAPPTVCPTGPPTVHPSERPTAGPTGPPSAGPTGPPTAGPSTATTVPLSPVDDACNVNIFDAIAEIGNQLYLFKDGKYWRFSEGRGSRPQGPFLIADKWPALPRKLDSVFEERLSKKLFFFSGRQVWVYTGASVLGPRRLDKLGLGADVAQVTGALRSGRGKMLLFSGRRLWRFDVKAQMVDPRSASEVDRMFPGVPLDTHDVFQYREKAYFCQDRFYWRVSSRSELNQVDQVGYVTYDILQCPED
Sequence of Stromelysin-1 (P08254 whole entry): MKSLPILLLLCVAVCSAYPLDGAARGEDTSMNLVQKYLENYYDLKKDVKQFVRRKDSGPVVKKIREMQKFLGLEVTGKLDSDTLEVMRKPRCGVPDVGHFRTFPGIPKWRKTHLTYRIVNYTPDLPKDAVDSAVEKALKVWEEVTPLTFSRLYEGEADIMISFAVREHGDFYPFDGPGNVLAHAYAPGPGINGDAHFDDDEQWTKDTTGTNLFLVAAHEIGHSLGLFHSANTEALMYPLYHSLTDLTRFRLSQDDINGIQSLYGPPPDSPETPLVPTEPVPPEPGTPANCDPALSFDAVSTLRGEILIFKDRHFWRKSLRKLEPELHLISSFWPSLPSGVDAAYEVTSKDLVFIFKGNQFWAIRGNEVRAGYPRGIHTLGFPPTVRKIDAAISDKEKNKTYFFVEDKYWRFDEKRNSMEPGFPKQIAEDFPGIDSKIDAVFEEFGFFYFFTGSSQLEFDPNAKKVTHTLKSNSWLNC

AUC(0-t) at 24 h [1] [µM·h]	Cmax [2] [µM]	IC50 [3] [nM]	fraction unbound [4]	IC50 [5] [nM]	IC50 [6] [nM]	clearance [7] [mL/min/kg]	IC50 [8] [nM]	IC50 [9] [nM]	Activity [10]	Structure (SMILES)
0.35	0.58	1200	0.4	5	113	15	3900	–	–	O=C(NO)[C@H]1CC2(CC2)CN[C@@H]1C(=O)N1CC=C(c2ccccc2)CC1
–	–	> 1000	–	64	> 5000	–	> 5000	77	–	CN1CC2(CC2)C[C@H](C(=O)NO)[C@H]1C(=O)N1CC=C(c2ccccc2)CC1
–	–	> 5000	–	150	> 5000	–	> 5000	310	–	CN1CC2(CC2)C[C@H](C(=O)NO)[C@H]1C(=O)N1CCN(c2ccccc2)CC1
–	–	> 5000	–	> 5000	> 5000	–	> 5000	720	–	CC1=C(c2ccccc2)CCN(C(=O)[C@H]2NCC3(CC3)C[C@@H]2C(=O)NO)C1
3.9	7.7	4000	0.7	39	428	6.67	> 5000	–	–	COC(=O)N1CC2(CC2)C[C@H](C(=O)NO)[C@H]1C(=O)N1CC=C(c2ccccc2)CC1
–	–	450	–	13	77	–	2500	23	–	O=C(NO)[C@H]1CC2(CC2)CN[C@@H]1C(=O)N1CC=C(c2ccccc2)C1
–	–	> 5000	–	> 5000	> 5000	–	> 5000	130	–	Cc1cc([N+](=O)[O-])ccc1C1=CCN(C(=O)[C@H]2NCC3(CC3)C[C@@H]2C(=O)NO)CC1
–	–	> 5000	–	350	> 5000	–	> 5000	330	–	O=C(NO)[C@H]1CC2(CC2)CN[C@@H]1C(=O)N1CCN2c3ccccc3CC2C1 (stereo partly specified)
–	–	> 1000	–	> 1000	> 5000	–	> 5000	–	inactive	CCC(C)NC(=O)[C@@H]1[C@@H](C(=O)NO)CC2(CC2)CN1C (stereo partly specified)
–	–	> 3000	–	960	> 3000	–	> 5000	–	–	O=C(NO)[C@H]1CC2(CC2)CN[C@@H]1C(=O)N1CC[C@H](c2ccccc2)C1
–	–	> 1000	–	> 1000	> 5000	–	> 5000	110	–	Cc1cc([N+](=O)[O-])ccc1N1CCN(C(=O)[C@H]2NCC3(CC3)C[C@@H]2C(=O)NO)CC1
–	–	–	–	–	–	–	–	480	–	O=C(NO)[C@H]1CCCN[C@@H]1C(=O)N1CC[C@H](c2ccccc2)C1
–	–	> 5000	–	450	> 5000	–	> 5000	320	–	O=C(NO)[C@H]1CC2(CC2)CN[C@@H]1C(=O)N1CCC(c2ccccc2)CC1
–	–	> 5000	–	> 5000	> 5000	–	> 5000	> 5000	inactive	Cc1ccccc1N1CCN(C(=O)[C@H]2NCC3(CC3)C[C@@H]2C(=O)NO)CC1
–	–	> 5000	–	200	650	–	> 5000	–	–	O=C(NO)[C@H]1CC2(CC2)CN[C@@H]1C(=O)N1CCN(c2ccccc2)CC1
